Measurements taken from ChEMBL document CHEMBL1148394, “Design, synthesis, and in vitro biological evaluation of small molecule inhibitors of estrogen receptor alpha coactivator binding” (J Med Chem, 2004).

biological target: Estrogen receptor (Homo sapiens, UniProt Q92731+P03372); assay: Binding affinity towards estrogen receptor was determined; type: protein assay

Structure (SMILES) | Ki [µM]
CC(C)CCNCCc1ccc2ccc(CCNCCC(C)C)cc2c1 | > 1000
CCCNc1nc(NCCC)nc(NCCC)n1 | 290
CC(C)CC[C@H]1S[C@@H](CCC(C)C)S[C@@H](CCC(C)C)S1 | > 1000
c1ccc(CCc2cc(NCc3ccccc3)nc(NCc3ccccc3)n2)cc1 | 49
CC(C)CCc1nc(NCC(C)C)nc(N(CC(=O)O)CC(C)C)n1 | 790
CC(C)CNC(=O)[C@]1(C)C[C@](C)(C(=O)NCC(C)C)C[C@](C)(C(=O)NCC(C)C)C1 | > 1000
CC(C)CCc1nc(NCC(C)C)nc(NCC(C)C)n1 | 650
c1ccc2cc(CNc3nc(NCc4ccc5ccccc5c4)nc(NCc4ccc5ccccc5c4)n3)ccc2c1 | 290
CC(C)CCc1nc(NCC(C)C)nc(N(CC(=O)O)C(C)C)n1 | 410
CCCCCCCNc1nc(NCCCCCCC)nc(NCCCCCCC)n1 | 290
CC(C)CNc1nc(NCC(C)C)nc(NCC(C)C)n1 | 590
CCC(C)CNCCc1ccc2ccc(CCNCC(C)CC)cc2c1 (stereo not drawn) | > 1000
c1ccc(CNc2nc(NCc3ccccc3)nc(NCc3ccccc3)n2)cc1 | 240
